The target in this test is C-C chemokine receptor type 5 (Macaca fascicularis). Nature of the test: Antagonistic activity against monkey C-C chemokine receptor type 5.

By IC50 is commonly meant the point on the concentration scale where inhibition reaches its midpoint. As to `Cc1cc[n+]([O-])c(C)c1C(=O)N1CCC(N2CCC(N(c3ccccc3)c3ccccc3)CC2)CC1` [(2,4-Dimethyl-1-oxy-pyridin-3-yl)-(4-diphenylamino-[1,4']bipiperidinyl-1'-yl)-methanone], the IC50 turned out to be 117 nM.
Consider `Cc1cccc(C)c1C(=O)N1CCC(C)(N2CCC(Nc3ccc4ccn(C)c4c3)CC2)CC1` [(2,6-Dimethyl-phenyl)-[4'-methyl-4-(1-methyl-1H-indol-6-ylamino)-[1,4']bipiperidinyl-1'-yl]-methanone], for which it took 43 nM to reach half-maximal inhibition (IC50).
Under `Cc1cccc(C)c1C(=O)N1CCC(C)(N2CCC(Nc3cccc4ccn(C)c34)CC2)CC1` [(2,6-Dimethyl-phenyl)-[4'-methyl-4-(1-methyl-1H-indol-7-ylamino)-[1,4']bipiperidinyl-1'-yl]-methanone] stands 147 nM; under `Cc1cccc(C)c1C(=O)N1CCC(C)(N2CCC(Nc3ccc(C(F)(F)F)cc3)CC2)CC1` [(2,6-Dimethyl-phenyl)-[4'-methyl-4-(4-trifluoromethyl-phenylamino)-[1,4']bipiperidinyl-1'-yl]-methanone], 1.1 nM.
To `Cc1ccccc1C(=O)N1CCC(C)(N2CCC(N(c3ccccc3)c3ccccc3)CC2)CC1` [(4-Diphenylamino-4'-methyl-[1,4']bipiperidinyl-1'-yl)-o-tolyl-methanone] belongs 28.6 nM.
Under `Cc1cccc(C)c1C(=O)N1CCC(C)(N2CCC(N(Cc3ccccc3)c3ccc(Br)cc3)CC2)CC1` [{4-[Benzyl-(4-bromo-phenyl)-amino]-4'-methyl-[1,4']bipiperidinyl-1'-yl}-(2,6-dimethyl-phenyl)-methanone] stands 6.2 nM.

(Values after BindingDB's records for doi:10.1021/jm031046g (Novartis Institutes For Biomedical Research, 2004).)
